Measured values: US20260335314A1, “CRYSTALLINE SALTS OR AMORPHOUS FORMS OF 2-((1H-PYRAZOL-3-YL)METHYL)-6-((6-AMINOPYRIDIN-2-YL)METHYL)-4-METHYL-4,6-DIHYDRO -5H-THIAZOLO[5',4':4,5]PYRROLO[2,3-D]PYRIDAZIN-5-ONE” (Agios Pharmaceuticals, Inc., priority 2023, published 2026)
≈ marks a conversion by molar mass, not a printed value.

What was measured:
pH solubility in buffers = type: physicochemical; details: for solubility at 2 h / solubility at 24 h / solubility: 37 °C; for pH (24 h): pH of solution at 24 h
Description: (§1) Solubility samples were prepared by weighing about 10 mg of each salt and adding 1 mL of media and vortexed briefly to obtain suspensions. […] For such instances, the solubility is calculated as greater than (>).
(§2) The sample vials were capped and wrapped in aluminum foil, and placed on a shaker at 37° C. The shaker was set at about 100 rpm and vials were removed at specified time points. The vials were observed, and the supernatants were transferred to Eppendorf tubes and centrifuged at 3K for 10 minutes. The clear supernatants were transferred to HPLC vials. The samples were diluted prior to HPLC analysis using the dilution media by 2× or used without dilution. pH was measured of the 24 hour timepoint after centrifugation using a micro pH probe.
(§3) • pH 2 buffer USP: Mixed 50 mL of 0.2M potassium chloride and 13 mL 0.2M HCl, diluted to 200 mL with water. • pH 4.5 buffer USP: 5.44 g of potassium dihydrogen phosphate was diluted to 1000 mL with water. • pH 6.8 buffer USP: Mixed 50 mL of 0.2M potassium phosphate and 22.4 mL 0.2M sodium hydroxide. Diluted with water to 200 mL. • SGF: 2.0109 g of NaCl was dissolved in water, added 7 mL of conc. HCl and diluted to 1 L. • FeSSIF: 4.0321 g of NaOH and 11.8726 g of NaCl were dissolved in water, added 8.65 mL of glacial acetic acid, adjusted the pH to 5.0 and diluted to 1 L. • FaSSIF: 0.4247 g of NaOH, 3.9548 g of sodium phosphate monobasic monohydrate and 6.1900 g of NaCl were dissolved in water, adjusted the pH to 6.5 and diluted to 1 L.
At each time point, the solution was analyzed by HPLC and residue was vacuum dried and analyzed by XRPD. The pH of the solution was measured at 24 hours.

[1] = Kinetic solubility in biorelevant media; type: physicochemical
Description: as §1, §2
as §3, with “adjusted the pH to 5.0 and diluted to 1 L. • FaSSIF:” left out
Kinetic solubility was determined in biorelevant media. At each time point, the solution was analyzed by HPLC. The solid residue was analyzed by XRPD at selected time points. The pH of the solution was measured at 24 hours.

[2] = Pharmacokinetics / absolute bioavailability in male Sprague Dawley rats; type: in vivo
Description: Twenty-one (21) male Sprague Dawley rats (purchased from Shanghai Laboratory Animal Center Co., Ltd., Shanghai, China) were randomized into 7 groups (3 animals per group). The animals fasted overnight, the forms of Compound 1 shown in Table 7 were administered by oral gavage, and the animals were fed 4 hours post-dose.
Blood was serially collected from each animal at 0 (pre-dose), 0.083, 0.25, 0.5, 1, 2, 4, 8, and 24 h post-dose. For each collection, the animal was restrained manually, and approximately 150 μL of blood sample was collected via the tail vein into K2EDTA tubes. Plasma samples were stored at approximately −70° C. until analysis.
To enable the calculation of absolute bioavailability, Compound 1 was formulated as a solution in 10% N-methyl-2-pyrrolidone, 10% Solutol HS 15, and 80% saline and administered at 1 mg/kg as intravenous (IV) bolus dose to a separate group of male Sprague Dawley rats, and blood samples were collected at similar timepoints to those shown above. Further, plasma samples were obtained from the collected samples and stored at approximately −70° C. until analysis.
The concentration of Compound 1 in the plasma samples was determined by LC-MS/MS analysis.
A 20 μL aliquot of each plasma sample was mixed with 200 μL of acetonitrile containing glipizide as an internal standard (40 ng/mL). The resulting mixture was vortexed at 1500 rpm for 2 min and centrifuged at 5800 rpm for 10 min. A 1 μL sample from the supernatant was injected into LC-MS/MS.
LC-MS/MS analysis was conducted on a UPLC/MS-MS (API 6500+) system under the conditions outlined in Table 8
The absolute bioavailability of each form of Compound 1 was determined by dividing the AUCinf of the form in question by the AUCinf obtained historical data by IV administration of Compound 1.

[3] = Stability study of Form A (storage); type: physicochemical
[4] = Dynamic vapor sorption (moisture uptake); type: physicochemical; details: 25° C., from 5% to 95% relative humidity
Description: Dynamic Vapor Sorption (DVS) was carried out using a TA Instruments Q5000 Dynamic Vapor Sorption analyzer. The instrument was calibrated with standard weights and a sodium bromide standard for humidity. Approximately 10-25 mg of sample was loaded into a metal-coated quartz pan for analysis. […] The movement from one step to the next occurred either after satisfying the equilibrium criterion of 0.01% weight change or, if the equilibrium criterion was not met, after one hour. The percent weight change values were calculated using Microsoft Excel®.

[5] = Physicochemical properties of Form A (summary)
[6] = SGF pH 1.2, pH of solution at 24 h

Cn1c2nc(Cc3cc[nH]n3)sc2c2cnn(Cc3cccc(N)n3)c(=O)c21 [Form A]
solubility at 2 h (pH solubility in buffers; 0.1 n hcl, 2 h): 1970 µg/mL (≈ 5020 µM)
solubility at 24 h (pH solubility in buffers; 0.1 n hcl, 24 h): 1480 µg/mL (≈ 3770 µM)
solubility (pH solubility in buffers; pH 2 (USP), 2 h, 120 min): 400 µg/mL (≈ 1020 µM)
solubility (pH solubility in buffers; pH 2 (USP), 24 h, 1440 min): 300 µg/mL (≈ 764 µM)
pH (24 h) (pH solubility in buffers; pH 2 (USP)): 2.06
solubility (pH solubility in buffers; pH 4.5 (USP), 2 h, 120 min): 60 µg/mL (≈ 153 µM)
solubility (pH solubility in buffers; pH 4.5 (USP), 24 h, 1440 min): 50 µg/mL (≈ 127 µM)
pH (24 h) (pH solubility in buffers; pH 4.5 (USP)): 4.32
solubility (pH solubility in buffers; pH 6.8 (USP), 2 h, 120 min): 40 µg/mL (≈ 102 µM)
solubility (pH solubility in buffers; pH 6.8 (USP), 24 h, 1440 min): 70 µg/mL (≈ 178 µM)
pH (24 h) (pH solubility in buffers; pH 6.8 (USP)): 5.63
solubility ([1]; FaSSIF pH 6.5, 10 min, 37 °C, 10 min): 120 µg/mL (≈ 306 µM)
solubility ([1]; FaSSIF pH 6.5, 30 min, 37 °C, 30 min): 120 µg/mL (≈ 306 µM)
solubility ([1]; FaSSIF pH 6.5, 1 h, 37 °C, 60 min): 110 µg/mL (≈ 280 µM)
solubility ([1]; FaSSIF pH 6.5, 2 h, 37 °C, 120 min): 160 µg/mL (≈ 408 µM)
solubility ([1]; FaSSIF pH 6.5, 4 h, 37 °C, 240 min): 170 µg/mL (≈ 433 µM)
solubility ([1]; FaSSIF pH 6.5, 24 h, 37 °C, 1440 min): 180 µg/mL (≈ 459 µM)
pH (24 h) ([1]; FaSSIF pH 6.5, pH of solution at 24 h): 3.91
solubility ([1]; FeSSIF pH 5.0, 10 min, 37 °C, 10 min): 550 µg/mL (≈ 1400 µM)
solubility ([1]; FeSSIF pH 5.0, 30 min, 37 °C, 30 min): 100 µg/mL (≈ 255 µM)
solubility ([1]; FeSSIF pH 5.0, 1 h, 37 °C, 60 min): 230 µg/mL (≈ 586 µM)
solubility ([1]; FeSSIF pH 5.0, 2 h, 37 °C, 120 min): 70 µg/mL (≈ 178 µM)
solubility ([1]; FeSSIF pH 5.0, 4 h, 37 °C, 240 min): 70 µg/mL (≈ 178 µM)
solubility ([1]; FeSSIF pH 5.0, 24 h, 37 °C, 1440 min): 30 µg/mL (≈ 76.4 µM)
pH (24 h) ([1]; FeSSIF pH 5.0, pH of solution at 24 h): 5.74
pH (24 h) [1, 6]: 0.87
solubility at 10 min ([1]; sgf, pH 1.2, SGF pH 1.2, 10 min, 37 °C): 2850 µg/mL (≈ 7260 µM)
solubility at 0.5 h ([1]; sgf, pH 1.2, SGF pH 1.2, 30 min, 37 °C): 4960 µg/mL (≈ 12600 µM)
solubility at 1 h ([1]; sgf, pH 1.2, SGF pH 1.2, 1 h, 37 °C): 2840 µg/mL (≈ 7240 µM)
solubility at 2 h ([1]; sgf, pH 1.2, SGF pH 1.2, 2 h, 37 °C): 3240 µg/mL (≈ 8260 µM)
solubility at 4 h ([1]; sgf, pH 1.2, SGF pH 1.2, 4 h, 37 °C): 3770 µg/mL (≈ 9610 µM)
solubility at 24 h ([1]; sgf, pH 1.2, SGF pH 1.2, 24 h, 37 °C): 2880 µg/mL (≈ 7340 µM)
absolute bioavailability, comparison with other forms ([2]; oral gavage, 10 mg/kg): higher than the measured bioavailability of the other forms of Compound 1
AUCinf ([2]; oral gavage, 10 mg/kg, fasted overnight, plasma): 9426 ng·h/mL
Absolute % F ([2]; oral gavage, 10 mg/kg, vs historical IV AUCinf, 10 mg/kg): 60%
plasma concentration-time profiles and pharmacokinetic parameters ([2]; summary statement): favorable plasma concentration-time profiles and pharmacokinetic parameters
degradation ([3]; one month under 25±2° C./60±5% RH): No degradation was observed
degradation ([3]; one month under 40±2° C./75±5% RH): No degradation was observed
moisture uptake (DVS) [4]: about 0.08%
stability in solvent systems ([5]; especially containing water): stability in multiple solvent systems
stability in humidity ([5]; relative humidity): at least 20 % RH
particle size ([5]; under microscope): below 20 μm
stability in humidity (water activity) ([5]; water activity): ≥ 0.2

Cn1c2nc(Cc3cc[nH]n3)sc2c2cnn(Cc3cccc(N)n3)c(=O)c21.O=C(O)C(O)C(O)C(=O)O (racemic) [Form C]
dissolution in 0.1N HCl (pH solubility in buffers; 0.1N HCl): dissolved instantly
pH (24 h) (pH solubility in buffers; 0.1 N HCl): 1.27
solubility (pH solubility in buffers; 0.1 n hcl, dissolved instantly, estimated by adding 100 uL aliquots, read-out: solubility): > 10900 µg/mL
pH solubility, overall (pH solubility in buffers; buffers pH 1 to pH 6.8): highest solubility
pH (24 h) (pH solubility in buffers; pH 2 (USP)): 2.52
pH (24 h) (pH solubility in buffers; pH 4.5 (USP)): 3.92
pH (24 h) (pH solubility in buffers; pH 6.8 (USP)): 3.54
solubility at 2 h (pH solubility in buffers; ph 2 buffer (usp), pH 2, pH 2 (USP), 2 h): 3810 µg/mL
solubility at 24 h (pH solubility in buffers; ph 2 buffer (usp), pH 2, pH 2 (USP), 24 h): 2460 µg/mL
solubility at 2 h (pH solubility in buffers; ph 4.5 buffer (usp), pH 4.5, pH 4.5 (USP), 2 h): 150 µg/mL
solubility at 24 h (pH solubility in buffers; ph 4.5 buffer (usp), pH 4.5, pH 4.5 (USP), 24 h): 120 µg/mL
solubility at 2 h (pH solubility in buffers; ph 6.8 buffer (usp), pH 6.8, pH 6.8 (USP), 2 h): 370 µg/mL
solubility at 24 h (pH solubility in buffers; ph 6.8 buffer (usp), pH 6.8, pH 6.8 (USP), 24 h): 330 µg/mL
pH (24 h) ([1]; FaSSIF pH 5.0 (so in the source), pH of solution at 24 h): 4.60
pH (24 h) ([1]; FeSSIF pH 6.5 (so in the source), pH of solution at 24 h): 3.35
pH (24 h) [1, 6]: 1.13
kinetic solubility, overall ([1]; all media tested): highest solubility in all media tested
solubility at 10 min ([1]; fassif, pH 5, FaSSIF pH 5.0 (so in the source), 10 min, 37 °C): 650 µg/mL
solubility at 0.5 h ([1]; fassif, pH 5, FaSSIF pH 5.0 (so in the source), 30 min, 37 °C): 310 µg/mL
solubility at 1 h ([1]; fassif, pH 5, FaSSIF pH 5.0 (so in the source), 1 h, 37 °C): 250 µg/mL
solubility at 2 h ([1]; fassif, pH 5, FaSSIF pH 5.0 (so in the source), 2 h, 37 °C): 200 µg/mL
solubility at 4 h ([1]; fassif, pH 5, FaSSIF pH 5.0 (so in the source), 4 h, 37 °C): 100 µg/mL
solubility at 24 h ([1]; fassif, pH 5, FaSSIF pH 5.0 (so in the source), 24 h, 37 °C): 120 µg/mL
solubility at 10 min ([1]; fessif, pH 6.5, FeSSIF pH 6.5 (so in the source), 10 min, 37 °C): 530 µg/mL
solubility at 0.5 h ([1]; fessif, pH 6.5, FeSSIF pH 6.5 (so in the source), 30 min, 37 °C): 860 µg/mL
solubility at 1 h ([1]; fessif, pH 6.5, FeSSIF pH 6.5 (so in the source), 1 h, 37 °C): 910 µg/mL
solubility at 2 h ([1]; fessif, pH 6.5, FeSSIF pH 6.5 (so in the source), 2 h, 37 °C): 990 µg/mL
solubility at 4 h ([1]; fessif, pH 6.5, FeSSIF pH 6.5 (so in the source), 4 h, 37 °C): 810 µg/mL
solubility at 24 h ([1]; fessif, pH 6.5, FeSSIF pH 6.5 (so in the source), 24 h, 37 °C): 20 µg/mL
solubility ([1]; sgf, pH 1.2, SGF pH 1.2, 37 °C, dissolved instantly, from total volume of media added, read-out: solubility): > 11100 µg/mL
dissolution in SGF ([1]; simulated gastric fluid (SGF)): dissolved instantly
absolute bioavailability, comparison with other forms ([2]; oral gavage, 10 mg/kg): higher than the measured bioavailability of the other forms of Compound 1
bioavailability ([2]; rat, plasma, po, 10 mg/kg, oral gavage, 10 mg/kg, vs historical IV AUCinf, read-out: Absolute % F): 91%
AUC(0-inf) ([2]; rat, plasma, po, 10 mg/kg, oral gavage, fasted overnight): 14200 ng·h/mL
moisture uptake (DVS) [4]: about 0.06%
